Patent publication US4221794A, “Method of imparting immunomodulating and antiviral activity” (Newport Pharmaceuticals International, Inc., priority 1979, dated 1980)

Columns and labels:
spleen cells = test: In vivo treatment of mice: effect on in vitro Con A stimulation of spleen cell proliferation; design: species or system male Balb/C mice
Description: The purpose of this study was to determine the effects of in vivo treatment of mice with the compounds NPT 15392 and 15410 on the subsequent activity of spleen cells isolated from these animals and evaluated in vitro for their proliferative response to the mitogen, Concanavalin A (Con A).
Nine male Balb/C mice, 8-9 weeks old, weighing 18-20 gms were divided into three groups. One group was treated twice daily (for 1 day), in the morning and afternoon, with an oral dose of NPT 15392 at 10 mg/kg. The second group was similarly treated with NPT 15410 at 20 mg/kg. A third group, dosed with saline served as a placebo control.
The following day, each group was sacrificed and the spleens removed and pooled. The spleens were minced and the cells washed in RPMI-1640 medium (Grand Island Biologicals) supplemental with 2 mm glutamine and antibiotics. The cell concentration of each preparation was determined by a Coulter counter and adjusted to 5×10^6 cells/ml with RPMI medium.
Microtiter assays were carried out in 0.2 ml incubations, containing 5×10^5 cells and Con A or Con A and compounds at the indicated concentrations. All assays were performed with 6 replicates and compared with a blank assay containing only cells. The assay plates were incubated at 37° in 5% CO2 for 4 days. During the final 18-20 hours of incubation, 0.5 ml of ^3 HTdR (10 μCi/ml, 6 Ci /m mole) were added to each culture. The cultures were harvested with a multiple automatic sample harvester (MASH) unit and the incorporated ^3 HTdR determined with a Beckman LS 8000 liquid scintillation counter, as a measure of cell proliferation. The results are tabulated as the ratio of the activity in the Con A or Con A and compound treated cultures to the blank cultures.

mouse lymphocytes = test: Mitogen (Con A) induced mouse lymphocyte (spleen cell) proliferation; assay type: cell-based; conditions: for Maximum Percent Change, Mitogen Induced (Con A) Mouse Lymph. Prolif.: plus = immunostimulating, minus = immunoinhibiting, 0 = neither
From the text: The following three assay procedures are used to evaluate the ability of the test substances to modulate the activity of several classes of cells in the immune system. In these systems it is possible to identify both immunopotentiating activity (evidence by an enhancement of the parameter examined) as well as immunosuppressant activity (evidenced by an inhibition of the parameter examined).
1. Mitogen-Induced Mouse Spleen Cell Assay
Mouse spleen cells contain a population of both B and T lymphocytes which can be stimulated by a number of foreign substances (e.g., plant mitogens such as Con A) to proliferate. This enhanced proliferation is an indication of enhanced cell mediated immunity. The method below describes the system used to evaluate test substances as immunopotentiators.
Concanavalin A (Calbiochem, La Jolla, California), Lot #210073, lyophilized in NaCl, was prepared first as a 1% solution and diluted as a 2×concentration for each dilution (0.5, 1.0, 2.5 μg/ml).
Six to eight week old male Balb/c and C3 H inbred mice were obtained from the following sources: Flow Research Animals, Inc., Dublin, Virginia; Charles River Breeding Laboratories, Wilmington, Massachusetts; Laboratory Supply Company, Indianapolis, Indiana; and Lionel Strong Foundation, San Diego, California.
Three to five mice were sacrificed by cervical dislocation and the spleens aseptically removed. Pooled spleens were minced and teased with sterile forceps; then strained through a double layer of nylon mesh. The cell suspension was washed once with 15 ml of RPMI 1640 supplemented with 5% fetal calf serum and antibiotics. Cells were cultured at a concentration of 10^6 cells/0.1 ml/well in micro-plates. Cultures were incubated in the presence or absence of mitogen in a humidified atmosphere containing 5% CO2 for 48 hours. The test compound was added to cultures at various concentrations concommitant with mitogen.
Proliferation was assayed by the degree of incorporation of 1.0 μCi of [^3 H] thymidine over an 18 hour incubation period. Cultures were harvested by a MASH unit (Otto Hiller Co., Madison, Wisconsin) and thymidine incorporation was assayed by liquid scintillation spectrometry. Cultures were performed in triplicate and data are expressed as means plus or minus the standard error of the experimental means. Drug stimulation indices over control values were also calculated and portrayed graphically.
Table 4 above presents the results of an evaluation of a number of these subject compounds as potentiators of the immune response. Three different test systems were used. The first involves a measure of the ability of the test compound to enhance the ability of mouse lymphocytes to proliferate in response to a plant mitogen (Con A). The second involves measuring the ability of the test compounds to enhance human lymphocyte proliferation in response to a second plant mitogen (PHA). The third system measures the ability of these test substances to enhance macrophage proliferation in response to a natural lymphokine (MMF, Macrophage Mitogenic Factor).

influenza virus = test: microbe, parasite or virus in culture; assay type: cell-based, influenza virus Type A/USSR 90 (HeLa cell cultures)
[1] = Con A 5 μg/ml (suboptimal), oral 15392 10 mg/kg, 15410 20 mg/kg

## CCCCCC[C@H]([C@H](C)O)n1cnc2c(=O)[nH]cnc21 (relative stereo) [NPT 15392, ERYTHRO-9-(2-HYDROXY-3-NONYL)HYPOXANTHINE]
Spleen cells; [1]
  response of spleen cells to Con A after in vivo treatment (in words): increases the subsequent response of the spleen cells
Spleen cells; Con A 10 μg/ml (more optimal)
  response of spleen cells to Con A after in vivo treatment (in words): No significant differences
Mouse lymphocytes; 01-1.0 μg/ml
  % Stimulation, Mitogen Induced Murine Lymphocyte Proliferation: > 50%
Mouse lymphocytes; 1.0-10 μg/ml
  % Stimulation, Mitogen Induced Murine Lymphocyte Proliferation: 30-50%
Mouse lymphocytes; 1.0-10 (unit not given)
  Maximum Percent Change, Mitogen Induced (Con A) Mouse Lymph. Prolif.: 162%
Mouse lymphocytes; 10-100 μg/ml
  % Stimulation, Mitogen Induced Murine Lymphocyte Proliferation: 30-50%
Mouse lymphocytes; 10-100 (unit not given)
  Maximum Percent Change, Mitogen Induced (Con A) Mouse Lymph. Prolif.: -72%
Mouse lymphocytes; .01-1.0 (unit not given)
  Maximum Percent Change, Mitogen Induced (Con A) Mouse Lymph. Prolif.: 172%
Influenza virus; Test Compound Conc. <10 μg/ml
  % Inhibition of Hemadsorption Foci: 86%
Influenza virus; unidentified influenza virus, read-out: % Inhibition of Hemadsorption Foci, Test Compound Conc. >100 μg/ml
  inhibition at 100 µg/mL: 100%

## CCCCCC[C@H]([C@H](C)O)n1cnc2c(=O)[nH]cnc21 (relative stereo) [NPT 15410]
Spleen cells; [1]
  response of spleen cells to Con A after in vivo treatment (in words): increases the subsequent response of the spleen cells
Spleen cells; Con A 10 μg/ml (more optimal)
  response of spleen cells to Con A after in vivo treatment (in words): No significant differences
Mouse lymphocytes; 01-1.0 μg/ml
  % Stimulation, Mitogen Induced Murine Lymphocyte Proliferation: > 50%
Mouse lymphocytes; 1.0-10 μg/ml
  % Stimulation, Mitogen Induced Murine Lymphocyte Proliferation: 30-50%
Mouse lymphocytes; 1.0-10 (unit not given)
  Maximum Percent Change, Mitogen Induced (Con A) Mouse Lymph. Prolif.: 40%
Mouse lymphocytes; 10-100 μg/ml
  % Stimulation, Mitogen Induced Murine Lymphocyte Proliferation: 30-50%
Mouse lymphocytes; 10-100 (unit not given)
  Maximum Percent Change, Mitogen Induced (Con A) Mouse Lymph. Prolif.: 40%
Mouse lymphocytes; .01-1.0 (unit not given)
  Maximum Percent Change, Mitogen Induced (Con A) Mouse Lymph. Prolif.: 140%
Influenza virus; Test Compound Conc. <10 μg/ml
  % Inhibition of Hemadsorption Foci: 58%
Influenza virus; Test Compound Conc. >100 μg/ml
  % Inhibition of Hemadsorption Foci: 96%
